ChEMBL document CHEMBL3507680, “University of Dundee, Gates Library screen for HepG2 cell viability”

Test: Human HepG2 cell viability assay in 384 well format
Type: toxicity, cell-based
Parameters: dose 125 nL, time 70.5 hour; concentration not given beside the values
Settings: HepG2 cells, read-out: Inhibition

Row | SMILES | cytotoxicity at 70.5 h [%]
1 | CCn1cc(C2CCN(Cc3ccnc(N(C)C)c3)CC2)cn1 | -4.12
2 | COc1cccc(CN(C)S(=O)(=O)N2CCOCC2)c1 | 2.16
3 | CC(O)CN1CCN(C(=O)c2cccn2Cc2ccccc2)CC1 (stereo not drawn) | -1.63
4 | C[C@H]1CN(C(=O)c2cccnc2)C[C@@]12CCN(CCN1CCCC1)C2=O | -6.14
5 | CCC(=O)N1CCCC1c1nccnc1Nc1ncccn1 (stereo not drawn) | -15
6 | CC(C)(C)n1ncc2c(=O)[nH]c(NC3CC=CC3)nc21 | 0.3
7 | Cc1ncsc1CN1C[C@@H]2COC[C@]2(COc2ccc(C#N)cn2)C1 | -4.4
8 | Cc1cnc(C(=O)NCc2ccc3c(c2)CCCN3C)cn1 | -4.01
9 | CCc1nsc(NC2CC(=O)N(C(C)(C)C)C2)n1 (stereo not drawn) | -8.26
10 | CC(C)N(CCO)C(=O)c1cc(COc2ccc3c(c2)CCCC3)on1 | -10.1
11 | NS(=O)(=O)c1ccc(CNCC(=O)NCc2ccc(Cl)cc2Cl)cc1 | -8.64
12 | CCN1CCOC(CNCc2ccc(C)s2)C1 (stereo not drawn) | -4.21
13 | CN(C)CCn1c(=O)oc2ccc(NC(=O)N3CCCCCC3)cc21 | 35.5
14 | CN(C)CCNc1c(-c2ccccc2)c(=O)c1=O | -1.53
15 | COc1ccc([C@@H]2CN(Cc3ccncc3)C[C@H]2N(C)C)cc1 | -9.42
16 | O=C(NCCC(O)c1ccoc1)Nc1cccs1 (stereo not drawn) | -9.28
17 | CC(C)CCN(C)Cn1ncc2cn(-c3ccccc3)nc2c1=O | 14.5
18 | CCCn1[nH]c(CNc2ccccc2)nc1=O | -2.36
19 | CC(C)(C)C1SCC(=O)Nc2c1c(O)nn2C1CCCC1 (stereo not drawn) | -21.9
20 | COc1ccc(CN2CCC(c3cc(O)nc(C)n3)C2)c(F)c1 (stereo not drawn) | -1.14
21 | O=C(c1cc(F)ccc1F)C1CCN(C(=O)c2ccccn2)CC1 | -12.2
22 | CC(C)c1ccc(-n2ncc(C(=O)N(C)C3CCN(C)CC3)c2N)cc1 | -2.55
23 | O[C@H]1CN(Cc2c[nH]nc2-c2ccccc2)CC[C@@]12CCCO2 | 15.7

Row | SMILES | cytotoxicity at 70.5 h [%]
24 | CC(Cn1cccn1)NC(=O)NCCc1cccnc1 (stereo not drawn) | -8.85
25 | CN1CC(c2cc(O)nc(NCc3ccc(Cl)cc3)n2)CC1=O (stereo not drawn) | -5.19
26 | CC(C)(C)C(=O)NCCC1CN(Cc2ccccc2F)CCO1 (stereo not drawn) | -9.52
27 | CCn1cc(CN2C[C@H]3CC[C@@H]2CN(C(=O)c2cnccn2)C3)cn1 | -5.14
28 | CCc1nccn1CC(=O)N1CCN(C2CCc3ccccc3C2)CC1 (stereo not drawn) | -13.3
29 | O=C(CCc1ccccc1)NCC1CCN(Cc2ccsc2)CC1 | 5.29
30 | CN(C)C(=O)c1noc2c1CN(C(=O)CCCN1CCCCC1)CC2 | 10.8
31 | CCN1CCN(c2ccccc2NC(=O)NCc2ccon2)CC1 | -0.39
32 | CN(C)C(=O)N1CCn2cc(CNC(=O)CC3CC3)nc2C1 | -0.867
33 | Cc1ccc(-n2cnnn2)cc1NCC(=O)Nc1cc(F)ccc1F | -66.2
34 | CCCS(=O)(=O)N1C[C@H]2C[C@H](C(=O)N3CCCC3)[C@@H](C1)O2 | -3.05
35 | CC(C)CN1C[C@@H]2C(=O)NC3(CCN(C(=O)c4cccnc4)CC3)[C@@H]2C1 | -9.79
36 | Cc1c[nH]nc1C1CCN(C(=O)CC2CCCC2)C1 (stereo not drawn) | -6.41
37 | CNS(=O)(=O)Cc1ccc(CNC(=O)Nc2cccnc2)cc1 | 13.3
38 | Cc1nc(C(C)(C)C)sc1C(=O)NCCn1ccnc1 | -7.91
39 | O=S(=O)(C1CC1)N1C[C@@H]2COC[C@]2(COc2ccccn2)C1 | -18.1
40 | Cc1noc(C)c1CN1CCN(CC2CC2)c2ncccc2C1 | -5.96
41 | Cc1cccc(CO[C@@H]2CO[C@@]3(CCN(S(=O)(=O)N(C)C)C3)C2)n1 | -4.3
42 | CC(=O)N(C)CC(=O)NC1(c2ccc(F)cc2)CCCC1 | -2.78
43 | O=S(=O)(c1ccc(Cl)cc1)N1C[C@@H]2CCN[C@@H]2C1 | -6.26
44 | CC[C@@]1(O)CCN(c2ncc(Cl)cc2F)C[C@H]1O | -13.4
45 | Cc1ccc(NC(=O)N(CCO)Cc2ccsc2)cc1 | -0.584
46 | Cc1cc(C(=O)N2CCn3cc(CN(C)C)nc3C2)no1 | -7.02

Row | SMILES | cytotoxicity at 70.5 h [%]
47 | Cc1cc(N(Cc2cccnc2)C2CC2)n2nc(C(F)(F)F)nc2n1 | 9.82
48 | CCCN1CCc2[nH]cnc2C12CCN(C(=O)CCn1cccn1)CC2 | -2.96
49 | Cc1ccc(CNC(=O)NC(C)CN2CCOCC2)s1 (stereo not drawn) | -6.15
50 | Cc1cc(C)cc(NCCC(=O)NC2CCCCC2)c1 | 1.57
51 | CN(CCc1cnn(C)c1)C(=O)C(c1ccccc1F)N(C)C (stereo not drawn) | 0.281
52 | COCc1ccccc1NC(=O)NCc1ccc(OCC2CC2)nc1 | -7.17
53 | COc1ccc(CN2CCC(CO)(Cc3ccc(Cl)cc3)CC2)c(O)c1 | -11.2
54 | O=C(NC1(c2nc(C3CC3)no2)CCCCC1)c1cccnc1O | 3.05
55 | Cc1c(C(C)NC2CCCC2)cnn1-c1ccc(F)cc1F (stereo not drawn) | 0.586
56 | CC(CNC(=O)NCc1ccco1)N1CCc2sccc2C1 (stereo not drawn) | 36.1
57 | C[C@H]1C[C@H]2CN(C(=O)c3ccncn3)CC[C@@H]2O1 | -19.6
58 | Cc1nn(C)c(N(C)C)c1CNCc1cccc(Br)c1 | -5.91
59 | CC(=O)N1[C@H](Cn2cncn2)C[C@@H]2CN(c3ccc(C)nn3)CC[C@@H]21 | -6.42
60 | CC(O)CN1CC(C)(C)CN(C(=O)CCc2ccccc2)CC1=O (stereo not drawn) | -2.42
61 | O=C(c1cscn1)N1CCc2[nH]nc(Nc3ccccc3)c2C1 | -6.3
62 | CN1CCN(C2CCN(CC(O)c3ccccc3)CC2)C1=O (stereo not drawn) | 4.73
63 | c1cnc(NCc2nnn3c2CN(Cc2cccs2)CCC3)nc1 | -115
64 | CN(C)CC(=O)N1CC(c2nn(C)c3nccnc23)C1 | -6.77
65 | N#Cc1c(F)cccc1N1CCC(NS(=O)(=O)c2cccs2)CC1 | 13.5
66 | CNC(=O)NCCc1csc2ccccc12 | -0.00639
67 | O=C(c1cccnc1)N1CCC2(CC1)CNc1c(F)cccc12 | -1.96
68 | Cn1cc(CN2CCCC3(CCN(c4cccnc4)C3=O)C2)cn1 (stereo not drawn) | 20
69 | O=C(CN(Cc1ccco1)C1CC1)Nc1ccc(Br)cn1 | -17.6

Row | SMILES | cytotoxicity at 70.5 h [%]
70 | CC(C)CNC(=O)c1nc2c(s1)CCN(C(=O)c1ccc(Cl)cc1)CC2 | -3.22
71 | CS(=O)(=O)c1nnc(NC(=O)CCc2cccs2)[nH]1 | 17.8
72 | CCCN1CCCN(c2ncccc2C(=O)N2CCCCC2)CC1 | -2.98
73 | COc1ccc(CNc2ncnc3c2NC(=O)CN3)cc1 | -6.06
74 | O=C(NCCC1CN(Cc2c[nH]cn2)CCO1)Nc1ccccc1 (stereo not drawn) | -8.29
75 | CC(C)NC(=O)Nc1ccc(CS(C)(=O)=O)cc1 | -0.657
76 | CN(C)C1CCC2(CCN(Cc3cccnc3)CC2)c2ccccc21 (stereo not drawn) | -3.39
77 | Cc1nc2c(c(N(C)C)n1)CCN(C(=O)c1ccc(N)nc1)C2 | -7.14
78 | Cc1n[nH]c(-c2ccc(NC(=O)C(C)(C)N3CCN(C)CC3)cc2)n1 | -7.96
79 | CC(C)c1nnc(CCC(=O)N2CCCC(c3cnccn3)C2)o1 (stereo not drawn) | -9.44
80 | O=C(Nc1cccc(F)c1)N1CCN(Cc2noc(C3CC3)n2)CC1 | -13.8
81 | CCC(NC(=O)NCc1cc(Cl)ccc1OC)c1noc(C)n1 (stereo not drawn) | 16
82 | O=C1N(CC2CC2)CCCC1(O)CN1CCc2[nH]ncc2C1 (stereo not drawn) | -4.29
83 | Cc1cccc(OCCNC(=O)C(C)S(=O)(=O)c2ccccn2)c1 (stereo not drawn) | -2.85
84 | CCN(Cc1cccs1)S(=O)(=O)N(C)C(C)C | -18.1
85 | Cc1noc(C)c1CS(=O)(=O)CC(=O)NCCc1cccs1 | 15.1
86 | Cc1ccsc1C(=O)NC1CCS(=O)(=O)c2ccccc21 (stereo not drawn) | -5.17
87 | O=C(Cc1ccccc1O)Nc1ccc(N2CCCC2)nc1 | -10.3
88 | COCC(=O)N[C@H](C(=O)NC(C)c1cccc(C)c1C)C(C)C (stereo partly drawn) | 0.118
89 | Cc1cnc(N2CCC(c3ccncc3)CC2)nc1-c1ccnn1C | -12.9
90 | Cc1ncsc1CCN(C)C(=O)c1c(O)cccc1O | 10.9
91 | O=C(c1c[nH]c(=O)c(Cl)c1)N1CCc2ccccc2C1 | 1.04
92 | COC(CNC(=O)c1cn(C)nn1)c1ccc(C)s1 (stereo not drawn) | -6.13

Row | SMILES | cytotoxicity at 70.5 h [%]
93 | Cc1ccnn1CC(=O)N1CCCN(C2Cc3ccccc3C2)CC1 | -14.5
94 | Cc1nn(C)c(Cl)c1C1CCCN1C(=O)c1cccc(C#N)c1 (stereo not drawn) | 0.647
95 | CC1(C(=O)N2CCN(c3ncccn3)CC2)CNCCO1 (stereo not drawn) | -8.07
96 | Cc1ccc(CC(=O)N2CSCC2C(=O)N(C)Cc2ccco2)o1 (stereo not drawn) | -12.2
97 | CC(Cn1cccn1)NC(=O)N1CCCN(Cc2cccs2)CC1 (stereo not drawn) | -5.76
98 | CC(C)NC(=O)[C@@]12CCO[C@@H]1CCN(Cc1ccc3c(c1)OCO3)C2 | 1.85
99 | CCN1CC[C@]2(CN(C(=O)[C@H]3CCCO3)C[C@H]2c2ccccc2)C1=O | -1.85
100 | COc1c(C2CCCN2C(=O)c2ccnc(N(C)C)c2)c(C)nn1C (stereo not drawn) | -6.74
101 | CCC(=O)N1CCN(C(=O)c2cn3ccsc3n2)[C@H]2CS(=O)(=O)C[C@H]21 | -13.8
102 | Cc1c(S(=O)(=O)N2CCCCC2c2nnc(-c3cccs3)o2)cnn1C (stereo not drawn) | -2.57
103 | CC(C)NC(=O)CN(C)C1CCN(c2ccc(C#N)cn2)CC1 | 0.463
104 | O=C(NC1CC1)N1CCc2ncnc(-c3ccncc3)c2CC1 | 18.5
105 | O=C(NCc1ccc(OCC2CC2)nc1)Nc1c(F)cccc1F | -2.96
106 | Cc1cc(CN2CC[C@H]3C(=O)N(c4cccnc4)CCO[C@H]3C2)no1 | -4.94
107 | O=C1NCCN1C1CCN(CCOc2ccccc2F)CC1 | -5.97
108 | CN1CCCN(C(=O)c2ccn3ccnc3c2)CC1 | 6.21
109 | COc1ccc(C(=O)Nc2cccc(C(N)=O)c2)c(OC)n1 | 9.82
110 | O=C(C1CCC1)N1CCC(C(=O)N2CCC(c3ccc(F)cc3)C2)CC1 (stereo not drawn) | 3.33
111 | COCc1noc(-c2nn(-c3ccc(F)c(F)c3)c3c2CCC3)n1 | 26
112 | Cc1csc(NC(=O)NCCCN2CCC(C(N)=O)CC2)n1 | -16.3
113 | O=C(C1CCCCC1)N1CCC2(CCCN2CC2CC2)CC1 | -2.81
